“And” between values parts separate entries of the source, which are not always exact repeats. Equal values may be shown once. Read-outs that look alike come from different tables or passages of the source.
What was measured:
[1] = Hydroformylation of propylene; conditions: 133 °C
From the text: [table 17: the next 25 blocks are its lines as printed, fixed-width]

[2] = Carbonylation of methanol to methyl acetate; parameters: methyl acetate (drawing 15) produced: unit not given here; conditions: for methyl acetate (drawing 17): the values are: methyl acetate volume produced; for methyl acetate (drawing 15) produced / CH3 OH consumed: 20 hour; for % Conversion (Table II) / % Selectivity (Table II; additional product was dimethyl ether): 1000 psi
Method: (THF)4 Mg[Co(CO)3 P(C4 H9)3 ]2 +CH3 I catalyst system
Reaction conditions: 175° C., 1000 psi

[3] = Carbonylation of methanol to methyl acetate; conditions: 175° C.
[4] = Method: This conversion is run at elevated pressures, preferably from 1,500 to 3,000 psi. Reaction temperatures will range from 50° C. to 200° C., with a range of 100° C. to 150° C. preferred. Ratio of H2 to CO used will vary with reaction conditions; preferably a 1 to 1 ratio is maintained. The catalyst concentration will range from 0.01 to 20% based on the weight feed, with 0.05 to 10% preferred.
30 ml. of hexene-1, 20 ml. of benzene, and 0.3 gm. […] The bomb was heated to 140° C. and held until the reaction was complete.

[5] = cocatalyst 8.0 mmole, 90 hr, 1.0 mmole catalyst, 175° C., 1000 psi CO
[6] = cocatalyst 8.0 mmole, 19 hr, 1.0 mmole catalyst, 175° C., 1000 psi CO
[7] = CH3I 1.6 mmole, 18 hr, 175° C., 1000 psi CO, no reaction occurs
[8] = CH3I 4.0 mmole, 18 hr, 175° C., 1000 psi CO
[9] = CH3I 6.0 mmole, 18 hr, 175° C., 1000 psi CO
[10] = CH3I 8.0 mmole, 3.25 hr, 175° C., 4000 psig CO
[11] = CH3I 8.0 mmole, 18 hr, 175° C., 1000 psi CO
[12] = CH3I 12.0 mmole, 18 hr, 175° C., 1000 psi CO
[13] = CH3I 16.0 mmole, 18 hr, 175° C., 1000 psi CO
[14] = CH3I 48.0 mmole, 17 hr, 175° C., 1000 psi CO
[15] = cocatalyst 8.0 mmole, 18 hr, 1.0 mmole catalyst, 175° C., 1000 psi CO
[16] = catalyst 1.0 mmole, CH3I 8.0 mmole, 21 hour, 175° C.
[17] = catalyst 2.0 mmole, CH3I 8.0 mmole, 67 hour, 175° C.
[18] = 1500 psi 1:1 H2:CO, 140° C., 0.3 gm catalyst

Question: Which t1/2 ([1]; 1n 2/k) does the source give for `[C-]#[O+].[Cl-].[Rh].c1ccc(P(c2ccccc2)c2ccccc2)cc1.c1ccc(P(c2ccccc2)c2ccccc2)cc1` [((C6 H5)3 P)2 Rh(CO)Cl] here?
Answer: Its t1/2 is 9.32 min.

Question: What about the “k (pseudo 1st order reaction rate constant)” value ([1]; 1000 psig CO/H2 50/50) of the same molecule?
Answer: Its value is 0.0744 min⁻¹.

Question: And the “n-C4 H8 O (percent straight chain isomer)” value ([1]; 1000 psig CO/H2 50/50, benzene, 0.5 mmoles catalyst based on Rh)?
Answer: The value was 56%.

Question: With `Ic1ccccc1` [C6 H5 I] as the molecule, how does the “% Conversion to Methyl Acetate (Table III)” value (“% Conversion … (Table III)” for short) [2, 5] read?
Answer: The value was 25%.

Question: And the “% Selectivity to Methyl Acetate (Table III)” value (shortened to “% Selectivity … (Table III)”) [2, 5]?
Answer: The value was 52%.

Question: What about the methyl acetate (drawing 17) ([2]; cocatalyst 8.0 mmole, 1000 psi CO, 175° C., 90 hours) of the same molecule?
Answer: The methyl acetate (drawing 17) was 22.3 mL.

Question: With `CBr` [CH3 Br] as the molecule, how does the activity as cocatalyst [2] read?
Answer: The activity as cocatalyst was “inactive”.

Question: Which “% Conversion … (Table III)” value [2, 6] does the source give for `CCI` [CH3 CH2 I] here?
Answer: Its value is 20%.

Question: What about the “% Selectivity … (Table III)” value [2, 6] of the same molecule?
Answer: Its value is 85%.

Question: What about the methyl acetate (drawing 17) [2] of the same molecule?
Answer: Its methyl acetate (drawing 17) is 17.5 mL.

Question: What does the source list for `CI` [CH3 I, methyl iodide]?
Answer: % Conversion to Methyl Acetate (Table IV) [2, 7]: 0.0%; % Selectivity to Methyl Acetate (Table IV) [2, 7]: 0.0%; methyl acetate (drawing 15) produced ([2]; CH3I 1.6 mmole, 1.0 mmole catalyst, 1000 psi CO, 175° C.): 0.5; CH3 OH consumed ([2]; CH3I 1.6 mmole, 1000 psi CO, 175° C.): 1.2 mL; % Conversion to Methyl Acetate (Table IV) [2, 8]: 22%; % Selectivity to Methyl Acetate (Table IV) [2, 8]: 100%; % Conversion to Methyl Acetate (Table IV) [2, 9]: 24%; % Selectivity to Methyl Acetate (Table IV) [2, 9]: 100%; % Conversion to Methyl Acetate (Table IV) [2, 10]: 29%; % Selectivity to Methyl Acetate (Table IV) [2, 10]: 97%; % Conversion to Methyl Acetate (Table IV) [2, 11]: 24%; % Selectivity to Methyl Acetate (Table IV) [2, 11]: 85%; methyl acetate (drawing 15) produced ([2]; CH3I 8.0 mmole, 1.0 mmole catalyst, 1000 psi CO, 175° C.): 22.4; CH3 OH consumed ([2]; CH3I 8.0 mmole, 1000 psi CO, 175° C.): 30.0 mL; % Conversion to Methyl Acetate (Table IV) [2, 12]: 5.4%; % Selectivity to Methyl Acetate (Table IV) [2, 12]: 15%; % Selectivity to Methyl Acetate (Table IV) ([2]; CH3I 16.0 mmole, 4.25 hr, 175° C., 4000 psig CO): 74%; % Conversion to Methyl Acetate (Table IV) [2, 13]: 4.5%; % Selectivity to Methyl Acetate (Table IV) [2, 13]: 12%; methyl acetate (drawing 15) produced ([2]; CH3I 16.0 mmole, 1.0 mmole catalyst, 1000 psi CO, 175° C.): 4.5; CH3 OH consumed ([2]; CH3I 16.0 mmole, 1000 psi CO, 175° C., CH3OH is dehydrated to CH3OCH3): 45.0 mL; % Conversion to Methyl Acetate (Table IV) [2, 14]: 0.0%; % Selectivity to Methyl Acetate (Table IV) [2, 14]: 0.0%; conversion to CH3 OCH3 [2, 14]: 100%; methyl acetate (drawing 15) produced ([2]; CH3I 48.0 mmole, 1.0 mmole catalyst, 1000 psi CO, 175° C.): 1.2; CH3 OH consumed ([2]; CH3I 48.0 mmole, 1000 psi CO, 175° C., CH3OH is dehydrated to CH3OCH3): 90. ml; % Selectivity to Methyl Acetate (Table III) ([2]; cocatalyst 8.0 mmole, 3.25 hr, 1.0 mmole catalyst, 175° C., 4000 psi CO): 97%; % Conversion to Methyl Acetate (Table III) [2, 15]: 24%; % Selectivity to Methyl Acetate (Table III) [2, 15]: 85%; % Conversion to Methyl Acetate (Table III) ([2]; cocatalyst 16.0 mmole, 4.25 hr, 1.0 mmole catalyst, 175° C., 4000 psi CO): 25%; methyl acetate (drawing 17) [2]: 19.8 mL and 29.6 mL and 21.4 mL; % Conversion to Methyl Acetate (Table IV) ([3]; CH3I 16.0 mmole, 4.25 hr, 4000 psig CO): 25%; % Conversion to Methyl Acetate (Table III) ([3]; cocatalyst 8.0 mmole, 3.25 hr, 1.0 mmole catalyst, 4000 psi CO): 29%; % Selectivity to Methyl Acetate (Table III) ([3]; cocatalyst 16.0 mmole, 4.25 hr, 1.0 mmole catalyst, 4000 psi CO): 74%

Question: Which results are given for `[C-]#[O+].[C-]#[O+].[C-]#[O+].[C-]#[O+].[C-]#[O+].[C-]#[O+].[C-]#[O+].[C-]#[O+].[Co].[Co]` [Co2 (CO)8]?
Answer: % Conversion (Table II) [2, 16]: 3.5%; % Selectivity (Table II; additional product was dimethyl ether) [2, 16]: 6.4%

Question: With `CC(=O)[CH-]C(C)=O.CC(=O)[CH-]C(C)=O.CC(=O)[CH-]C(C)=O.[Co+3]` [Co(C5 H7 O2)3] as the molecule, how does the “% Conversion (Table II)” value [2, 17] read?
Answer: Its value is 16%.

Question: What about the “% Selectivity (Table II; additional product was dimethyl ether)” value [2, 17] of the same molecule?
Answer: Its value is 23%.

Question: Which results are given for `I` [HI]?
Answer: % Conversion to Methyl Acetate (Table III) [2]: 8%; % Selectivity to Methyl Acetate (Table III) [2]: 47%; methyl acetate (drawing 17) [2]: 6.6 mL

Question: For `[I-].[Li+]` [LiI], which “% Conversion … (Table III)” value [2] is on record?
Answer: Its value is 0.6%.

Question: And the “% Selectivity … (Table III)” value [2]?
Answer: The value was 100%.

Question: What about the methyl acetate (drawing 17) [2] of the same molecule?
Answer: The methyl acetate (drawing 17) was 1 mL.

Question: With “tetrakis tetrahydrofuran adduct of a magnesium-dicobalt hexacarbonyl bismethyldiphenylphosphine complex [(C4 H8 O)4 Mg[Co(CO)3 PCH3 (C6 H5)2]2]” as the molecule, how does the “hexene-1 converted to C7 aldehydes and C7 alcohols” value [4, 18] read?
Answer: Its value is 99%.

Question: What about the “reacted product that was an aldehyde” value [4, 18] of the same molecule?
Answer: The value was 87%.

Question: And the “conversion of 1-hexene to heptaldehydes” value ([4]; elevated pressures)?
Answer: The value was > 99%.

Question: And the “selectivity, 1-hexene to heptaldehydes” value ([4]; elevated pressures)?
Answer: The value was 87%.

From patent publication US4250329A, “Carbonylation process” (priority 1979, dated 1981)
